Test results reported in patent US8476264B2, “N-(3-(2-amino-6,6-difluoro-4,4A,5,6,7,7A-hexahydro-cyclopenta[E][1,3]oxazin-4-yl)-phenylamides as BACE1 inhibitors” (Hoffmann-La Roche Inc., priority 2011, dated 2013).

These molecules were tested against T1, BACE1 (Homo sapiens, UniProt P56817) (assay: Cellular Aβ-lowering assay (Aβ40 ELISA)). Details: HEK293 cells stably expressing human APP wt (APP695); Aβ40 in supernatant after 18-20 hrs; read-out: BACE1 cell act. Aβ40 IC50.
T1 construct: Human HEK293 cells which are stably transfected with a vector expressing a cDNA of the human APP wt gene (APP695); endogenous in cells; host or cells: HEK293 stably transfected with human APP695 wt
Assay type: cell-based
Protocol: Cellular Aβ-Lowering Assay:
Human HEK293 cells which are stably transfected with a vector expressing a cDNA of the human APP wt gene (APP695) were used to assess the potency of the compounds in a cellular assay. The cells were seeded in 96-well microtiter plates in cell culture medium (Iscove, plus 10% (v/v) fetal bovine serum, glutamine, penicillin/streptomycin) to about 80% confluence and the compounds were added at a 10× concentration in 1/10 volume of medium without FCS containing 8% DMSO (final concentration of DMSO was kept at 0.8% v/v). After 18-20 hrs incubation at 37° C. and 5% CO2 in a humidified incubator the culture supernatant was harvested for the determination of Aβ40 concentrations. 96 well ELISA plates (e.g., Nunc MaxiSorb) were coated with monoclonal antibody which specifically recognize the C-terminal end of Aβ40 (Brockhaus et al., NeuroReport 9, 1481-1486; 1998). After blocking of non-specific binding sites with e.g. 1% BSA and washing, the culture supernatants were added in suitable dilutions together with a horseradish peroxidase-coupled Aβ detection antibody (e.g., antibody 4G8, Senetek, Maryland Heights, Mo.) and incubated for 5 to 7 hrs. Subsequently the wells of the microtiter plate were washed extensively with Tris-buffered saline containing 0.05% Tween 20 and the assay was developed with tetramethylbenzidine/H2O2 in citric acid buffer. After stopping the reaction with one volume 1 N H2SO4 the reaction was measured in an ELISA reader at 450 nm wavelength. The concentrations of Aβ in the culture supernatants were calculated from a standard curve obtained with known amounts of pure Aβ peptide.

T1 sequence (P56817 46-501): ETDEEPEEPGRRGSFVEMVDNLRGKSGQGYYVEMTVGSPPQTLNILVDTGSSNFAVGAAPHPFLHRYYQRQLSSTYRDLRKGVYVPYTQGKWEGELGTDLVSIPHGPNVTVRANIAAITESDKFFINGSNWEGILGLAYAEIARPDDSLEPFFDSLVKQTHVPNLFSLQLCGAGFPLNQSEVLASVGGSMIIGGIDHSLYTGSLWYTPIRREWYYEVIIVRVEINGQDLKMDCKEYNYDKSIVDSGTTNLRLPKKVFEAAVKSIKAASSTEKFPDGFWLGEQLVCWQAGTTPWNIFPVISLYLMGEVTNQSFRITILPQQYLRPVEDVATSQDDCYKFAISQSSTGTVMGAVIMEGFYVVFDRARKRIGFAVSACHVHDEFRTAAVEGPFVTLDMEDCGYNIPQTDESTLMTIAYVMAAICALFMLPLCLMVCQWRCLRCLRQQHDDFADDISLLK

SMILES | IC50 [µM]
NC1=N[C@](CF)(c2cc(NC(=O)c3cnc(OCF)cn3)ccc2F)[C@H]2CC(F)(F)C[C@H]2O1 [Example 26, 5-Fluoromethoxy-pyrazine-2-carboxylic acid [(S)-3-((1R,2R)-2-amino-6,6-difluoro-4-fluoromethyl-4,4a,5,6,7,7a-hexahydro-cyclopenta[e][1,3]oxazin-4-yl)-4-fluoro-phenyl]-amide] | 0.0035
NC1=N[C@](CF)(c2cc(NC(=O)c3ncc(F)cc3F)ccc2F)[C@H]2CC(F)(F)C[C@H]2O1 [Example 8, 3,5-Difluoro-pyridine-2-carboxylic acid [(S)-3-((1R,2R)-2-amino-6,6-difluoro-4-fluoromethyl-4,4a,5,6,7,7a-hexahydro-cyclopenta[e][1,3]oxazin-4-yl)-4-fluoro-phenyl]-amide] | 0.0169
NC1=N[C@](CF)(c2cc(NC(=O)c3ncc(Cl)cc3Cl)ccc2F)[C@H]2CC(F)(F)C[C@H]2O1 [Example 6, 3,5-Dichloro-pyridine-2-carboxylic acid [(S)-3-((1R,2R)-2-amino-6,6-difluoro-4-fluoromethyl-4,4a,5,6,7,7a-hexahydro-cyclopenta[e][1,3]oxazin-4-yl)-4-fluoro-phenyl]-amide] | 0.0017
NC1=N[C@](CF)(c2cc(NC(=O)c3cnc(Cl)cn3)ccc2F)[C@H]2CC(F)(F)C[C@H]2O1 [Example 27, 5-Chloro-pyrazine-2-carboxylic acid [(S)-3-((1R,2R)-2-amino-6,6-difluoro-4-fluoromethyl-4,4a,5,6,7,7a-hexahydro-cyclopenta[e][1,3]oxazin-4-yl)-4-fluoro-phenyl]-amide] | 0.66
NC1=N[C@](CF)(c2cc(NC(=O)c3ncc(C(F)(F)F)cn3)ccc2F)[C@H]2CC(F)(F)C[C@H]2O1 [Example 31, 5-Trifluoromethyl-pyrimidine-2-carboxylic acid [(S)-3-((1R,2R)-2-amino-6,6-difluoro-4-fluoromethyl-4,4a,5,6,7,7a-hexahydro-cyclopenta[e][1,3]oxazin-4-yl)-4-fluoro-phenyl]-amide] | 0.036
NC1=N[C@](CF)(c2cc(NC(=O)c3ccc(Cl)cn3)ccc2F)[C@H]2CC(F)(F)C[C@H]2O1 [Example 4, 5-Chloro-pyridine-2-carboxylic acid [(S)-3-((1R,2R)-2-amino-6,6-difluoro-4-fluoromethyl-4,4a,5,6,7,7a-hexahydro-cyclopenta[e][1,3]oxazin-4-yl)-4-fluoro-phenyl]-amide] | 0.002
NC1=N[C@](CF)(c2cc(NC(=O)c3cnc(OC(F)F)cn3)ccc2F)[C@H]2CC(F)(F)C[C@H]2O1 [Example 21, 5-Difluoromethoxy-pyrazine-2-carboxylic acid [(S)-3-((1R,2R)-2-amino-6,6-difluoro-4-fluoromethyl-4,4a,5,6,7,7a-hexahydro-cyclopenta[e][1,3]oxazin-4-yl)-4-fluoro-phenyl]-amide] | 0.0009
NC1=N[C@](CF)(c2cc(NC(=O)c3ccc(OCC(F)F)cn3)ccc2F)[C@H]2CC(F)(F)C[C@H]2O1 [Example 14, 5-(2,2-Difluoro-ethoxy)-pyridine-2-carboxylic acid [(S)-3-((1R,2R)-2-amino-6,6-difluoro-4-fluoromethyl-4,4a,5,6,7,7a-hexahydro-cyclopenta[e][1,3]oxazin-4-yl)-4-fluoro-phenyl]-amide] | 0.023
CC#CCOc1ccc(C(=O)Nc2ccc(F)c([C@@]3(CF)N=C(N)O[C@@H]4CC(F)(F)C[C@@H]43)c2)nc1 [Example 5, 5-But-2-ynyloxy-pyridine-2-carboxylic acid [(S)-3-((1R,2R)-2-amino-6,6-difluoro-4-fluoromethyl-4,4a,5,6,7,7a-hexahydro-cyclopenta[e][1,3]oxazin-4-yl)-4-fluoro-phenyl]-amide] | 0.0008
NC1=N[C@](CF)(c2cc(NC(=O)c3ccc(OC(F)F)cn3)ccc2F)[C@H]2CC(F)(F)C[C@H]2O1 [Example 13, 5-Difluoromethoxy-pyridine-2-carboxylic acid [(S)-3-((1R,2R)-2-amino-6,6-difluoro-4-fluoromethyl-4,4a,5,6,7,7a-hexahydro-cyclopenta[e][1,3]oxazin-4-yl)-4-fluoro-phenyl]-amide] | 0.0035

Now from value to molecule:

IC50 [µM] | SMILES
0.044 | NC1=N[C@@](c2cc(NC(=O)c3cnc(C(F)F)cn3)ccc2F)(C(F)F)[C@H]2CC(F)(F)C[C@H]2O1 [Example 40, 5-Difluoromethyl-pyrazine-2-carboxylic acid [(S)-3-((1R,2R)-2-amino-4-difluoromethyl-6,6-difluoro-4,4a,5,6,7,7a-hexahydro-cyclopenta[e][1,3]oxazin-4-yl)-4-fluoro-phenyl]-amide]
0.007 | NC1=N[C@@](c2cc(NC(=O)c3cnc(OC(F)F)cn3)ccc2F)(C(F)F)[C@H]2CC(F)(F)C[C@H]2O1 [Example 41, 5-Difluoromethoxy-pyrazine-2-carboxylic acid [(S)-3-((1R,2R)-2-amino-4-difluoromethyl-6,6-difluoro-4,4a,5,6,7,7a-hexahydro-cyclopenta[e][1,3]oxazin-4-yl)-4-fluoro-phenyl]-amide]
0.017 | NC1=N[C@@](c2cc(NC(=O)c3ccc(Cl)cn3)ccc2F)(C(F)F)[C@H]2CC(F)(F)C[C@H]2O1 [Example 37, 5-Chloro-pyridine-2-carboxylic acid [(S)-3-((1R,2R)-2-amino-4-difluoromethyl-6,6-difluoro-4,4a,5,6,7,7a-hexahydro-cyclopenta[e][1,3]oxazin-4-yl)-4-fluoro-phenyl]-amide]
0.017 | NC1=N[C@@](c2cc(NC(=O)c3cnc(OCF)cn3)ccc2F)(C(F)F)[C@H]2CC(F)(F)C[C@H]2O1 [Example 38, 5-Fluoromethoxy-pyrazine-2-carboxylic acid [(S)-3-((1R,2R)-2-amino-4-difluoromethyl-6,6-difluoro-4,4a,5,6,7,7a-hexahydro-cyclopenta[e][1,3]oxazin-4-yl)-4-fluoro-phenyl]-amide]
0.027 | N#Cc1ccc(C(=O)Nc2ccc(F)c([C@@]3(CF)N=C(N)O[C@]4(CF)CC(F)(F)C[C@@H]43)c2)nc1 [Example 46, 5-Cyano-pyridine-2-carboxylic acid [3-((1R,7aR)-2-(S)-amino-6,6-difluoro-4,7a-bis-fluoromethyl-4,4a,5,6,7,7a-hexahydro-cyclopenta[e][1,3]oxazin-4-yl)-4-fluoro-phenyl]-amide]
0.0055 | NC1=N[C@@](c2cc(NC(=O)c3nn(C(F)F)cc3Cl)ccc2F)(C(F)F)[C@H]2CC(F)(F)C[C@H]2O1 [Example 43, 4-Chloro-1-difluoromethyl-1H-pyrazole-3-carboxylic acid [(S)-3-((1R,2R)-2-amino-4-difluoromethyl-6,6-difluoro-4,4a,5,6,7,7a-hexahydro-cyclopenta[e][1,3]oxazin-4-yl)-4-fluoro-phenyl]-amide]
11.1 | N#Cc1ccc(C(=O)Nc2ccc(F)c([C@]3(CF)N=C(N)O[C@@]4(CF)CC(F)(F)C[C@H]43)c2)nc1 [Example 45, 5-Cyano-pyridine-2-carboxylic acid [3-((1S,7aS)-2-(R)-amino-6,6-difluoro-4,7a-bis-fluoromethyl-4,4a,5,6,7,7a-hexahydro-cyclopenta[e][1,3]oxazin-4-yl)-4-fluoro-phenyl]-amide]
